According to ChEMBL document CHEMBL2417541, “Aromatic glucosides from the seeds of Prunus davidiana” (J Nat Prod, 2013):

How the values were obtained:
Liver microsomes [1] = test: Antioxidant activity in rat liver microsomes assessed as inhibition of Fe2+-cysteine-induced lipid peroxidation measured malondialdehyde level at 10^-5 M/L incubated for 15 mins prior to FeSO4 addition measured after 15 mins by TBA method relative to control; assay type: functional; conditions: Microsome
Liver microsomes [2] = test: Antioxidant activity in rat liver microsomes assessed as inhibition of Fe2+-cysteine-induced lipid peroxidation measured malondialdehyde level at 10^-6 M/L incubated for 15 mins prior to FeSO4 addition measured after 15 mins by TBA method relative to control; assay type: functional; conditions: Microsome
HCT-8 = test: Cytotoxicity against human HCT8 cells; assay type: cell-based
Liver microsomes [3] = test: Antioxidant activity in rat liver microsomes assessed as inhibition of Fe2+-cysteine-induced lipid peroxidation measured malondialdehyde level at 10^-4 M/L incubated for 15 mins prior to FeSO4 addition measured after 15 mins by TBA method relative to control; assay type: functional; conditions: Microsome
Bel-7402 = test: Cytotoxicity against human Bel7402 cells; assay type: cell-based
BGC-823 = test: Cytotoxicity against human BGC823 cells; assay type: cell-based
A2780 = test: Cytotoxicity against human A2780 cells; assay type: cell-based
A549 = test: Cytotoxicity against human A549 cells; assay type: cell-based

SMILES	inhibition (Liver microsomes [1]) [%]	inhibition (Liver microsomes [2]) [%]	IC50 (HCT-8) [µM]	inhibition (Liver microsomes [3]) [%]	IC50 (Bel-7402) [µM]	IC50 (BGC-823) [µM]	IC50 (A2780) [µM]	IC50 (A549) [µM]
O=C(OC[C@H]1O[C@@H](OC[C@H](O)[C@@H](O)c2ccc(O)cc2)[C@H](O)[C@@H](O)[C@@H]1O)c1ccccc1	64	57	> 10	88	> 10	> 10	> 10	> 10
COc1cc(CO)ccc1O[C@@H]1O[C@H](COC(=O)c2ccccc2)[C@@H](O)[C@H](O)[C@H]1O	42	41	> 10	51	> 10	> 10	> 10	> 10
O=C(OC[C@H]1O[C@@H](O[C@@H](C(=O)O)c2ccccc2)[C@H](O)[C@@H](O)[C@@H]1O)c1ccccc1	60	53	> 10	67	> 10	> 10	> 10	> 10
CCOC(=O)[C@H](O[C@@H]1O[C@H](CO[C@@H]2O[C@H](CO)[C@@H](O)[C@H](O)[C@H]2O)[C@@H](O)[C@H](O)[C@H]1O)c1ccccc1	51	56	> 10	51	> 10	> 10	> 10	> 10
O=C(OC[C@H]1O[C@@H](OC[C@H]2O[C@@H](OCc3ccccc3)[C@H](O)[C@@H](O)[C@@H]2O)[C@H](O)[C@@H](O)[C@@H]1O)c1ccccc1	50	59	> 10	55	> 10	> 10	> 10	> 10
N#C[C@H](O[C@@H]1O[C@H](CO[C@@H]2O[C@H](COC(=O)c3cccnc3)[C@@H](O)[C@H](O)[C@H]2O)[C@@H](O)[C@H](O)[C@H]1O)c1ccccc1	67	56	> 10	88	> 10	> 10	> 10	> 10
O=C(OC[C@H]1O[C@@H](OC[C@H]2O[C@@H](OC(=O)c3ccccc3)[C@H](O)[C@@H](O)[C@@H]2O)[C@H](O)[C@@H](O)[C@@H]1O)c1ccccc1	66	56	> 10	56	> 10	> 10	> 10	> 10
